The source of these data is patent US20130302409A1, “METHODS AND COMPOSITIONS FOR CANCER IMMUNOTHERAPY” (priority 2010, published 2013).

The assay concerns 4T1 tumor (highly metastatic, syngeneic mammary cancer cell line). In words: Survival of tumor-bearing mice after cyclophosphamide, intratumoral nanoparticles and cryoablation or resection. The following applies: Cy 200 mg/kg intraperitoneally day 14 plus cryoablation day 16, compared with Cy plus surgical resection of the subcutaneous nodule; FIG. 3A. The format is in vivo, BALB/c mice. Here is the method: The particles are suspended with a pipette for about one minute. […] The particles in PBS should not be used if kept for more than 12 hours. The particles are lightly sonicated with a bath sonicator, or vortexed to make an even suspension. The particles should not sit idly in the syringe as they will settle and then clog the syringe. Ideally, the injection should be made within 10-30 seconds after drawing the well-mixed nanoparticle suspension into the syringe. For mice with a tumor of 5-8 mm diameter, 100 mg of particles is injected directly into the tumor in a volume of 0.1 ml.
Groups of 10 BALB/c mice each received a subcutaneous inoculation of 10^4 cells of the highly metastatic, syngeneic mammary cancer cell line on the flank.

As to `O=P1(N(CCCl)CCCl)NCCCO1` (stereo not shown) [cyclophosphamide], the survival entry is reported as “did not survive significantly longer”.
